Test results taken from US20240366535A1, “FORMULATION WITH IMPROVED BIOAVAILABILITY” (MERRY LIFE BIOMEDICAL COMPANY, LTD., priority 2023, published 2024).

What was measured:
[1] = Dissolution test in medium simulating intestinal juice (pH 6.8 phosphate buffer), 30 min; type: physicochemical; details: Medium pH 6.8 Phosphate Buffer
Procedure: (§1) Dissolution Test in 0.1 HCl and pH 6.8 Phosphate Buffer, 30 Min
(§2) The dissolution of TML-6 (API alone) and TML-6 formulations (E01 to E12) were measured in mediums simulating gastric juice for 30 mins, and the results are as shown in Table 5 and 6. The dissolution of TML-6 (API alone) and TML-6 formulations (E13 to E17) were measured in mediums simulating intestinal juice for 30 mins, and the results are as shown in Table 6.

[2] = Pharmacokinetics (PK) studies in rats, single oral dose; type: in vivo; details: male, Sprague-Dawley, TML-6 in rat plasma, 25.0 mg/kg single dose, 0.5% MC suspension
Procedure: The objective of this study is to obtain the pharmacokinetic profiles of TML-6 API (unformulated, crystalline), TML-6 formulation E02 (crystalline) and TML-6 formulations E10, E12 and E13 (amorphous) though oral (PO) doses when administrated to 6-8 week old male Sprague-Dawley rats (BioLASCO Taiwan Co. Ltd). A study design of five doses on rats. Animals received a single dose of TML-6 API, TML-6 formulations E02, E10, E12 and E13 at 25 mg/kg via oral gavage.
Dosing Solution Preparation: The TML-6 API, E02, E10, E12 and E13 oral formulations were prepared by suspending these TML6 formulated powder in the aqueous vehicle composed of 0.5% methylcellulose (MC) to the concentration of 2.5 mg/mL TML-6, respectively.
Plasma Sample Preparation and Bioanalysis Serial blood samples were collected from all animals through the tail veins. Approximately 0.2 mL blood samples were collected at each following time points: predose and 0.083, 0.25, 0.5, 1, 2, 4, 6, 8, 10 and 24 hours post-dose. Separation of plasma was prepared by centrifugation (1,000×g for 15 minutes at 4° C.) after blood sampling. Concentrations of TML-6 in rat plasma were determined by liquid chromatography-tandem mass spectrometry (LC-MS/MS), as shown in FIGS. 6 and 7. The lower limit of quantification (LLOQ) was 0.1 ng/mL. […]

[3] = Dissolution test in medium simulating gastric juice (0.1N HCl), 30 min; type: physicochemical; details: Medium 0.1N HCl
Procedure: as §1, §2

- Dissolution within 30 mins [1]: 0.06%
- AUC(0-inf) [2]: 73.6 ng·h/mL
- Cmax [2]: 25.3 ng/mL
- Dissolution within 30 min [3]: 0.1%
Structure (SMILES): CCN(CC)C(=O)CC(C)(C(=O)/C=C/c1ccc(OC)c(OC)c1)C(=O)/C=C/c1ccc(OC)c(OC)c1 [API alone]
